Measured values published in patent US8367714B2, “Cannabinoid receptor targeted agent” (Vanderbilt University, priority 2007, dated 2013).

How the values were obtained:
CB2 receptor [1] = biological target: CB2 receptor (Homo sapiens, UniProt P34972); conditions: cited from earlier work
CB2 receptor [2] = biological target: T1, CB2 receptor (Mus musculus, UniProt P47936); experiment: Fluorescence imaging of live DBT cells (2D4 CB2-expressing clone and wild type) and competition study; assay type: cell-based; conditions: 5 μM, control for non-specific binding due to the dye (FIG. 2)
T1 construct: expressed in transfected cells; host or cells: DBT mouse astrocytoma cells, 2D4 clone; wild-type DBT cells lack CB2
Text: To test whether NIRmbc94 reliably binds to the CB2 receptor, we already had in place a system wherein the receptor was both absent and present.

Sequence of CB2 receptor (Homo sapiens, UniProt P34972) (P34972 whole entry): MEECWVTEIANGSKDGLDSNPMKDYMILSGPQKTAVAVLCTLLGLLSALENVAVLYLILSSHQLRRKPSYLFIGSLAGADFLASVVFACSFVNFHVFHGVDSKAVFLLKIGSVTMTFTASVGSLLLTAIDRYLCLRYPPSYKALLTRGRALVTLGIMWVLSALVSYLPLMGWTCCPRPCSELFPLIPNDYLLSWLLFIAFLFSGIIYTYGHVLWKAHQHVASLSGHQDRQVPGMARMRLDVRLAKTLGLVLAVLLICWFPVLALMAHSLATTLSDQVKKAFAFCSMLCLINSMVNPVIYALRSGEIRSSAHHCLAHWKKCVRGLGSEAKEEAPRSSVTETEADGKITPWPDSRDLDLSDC
T1 sequence (P47936 whole entry): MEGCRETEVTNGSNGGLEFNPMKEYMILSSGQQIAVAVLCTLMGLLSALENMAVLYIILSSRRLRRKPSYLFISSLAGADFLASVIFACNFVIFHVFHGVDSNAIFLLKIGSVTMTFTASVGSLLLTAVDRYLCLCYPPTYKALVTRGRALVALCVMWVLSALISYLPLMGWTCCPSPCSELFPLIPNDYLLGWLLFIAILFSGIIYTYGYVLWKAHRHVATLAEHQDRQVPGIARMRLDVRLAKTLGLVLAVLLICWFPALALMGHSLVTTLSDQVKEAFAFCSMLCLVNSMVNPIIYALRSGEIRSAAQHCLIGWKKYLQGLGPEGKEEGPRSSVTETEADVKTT

| Molecule | CB2/CB1 affinity ratio (CB2 receptor [1]) | fluorescence of cells dosed with free dye (CB2 receptor [2]) |
| --- | --- | --- |
| COc1ccc(C(=O)c2c(C)n(CCN3CCOCC3)c3cc(I)ccc23)cc1 [AM630] | 165 | – |
| CC1(C)C(=CC=C2CCCC(C=CC3=[N+](CCCCCC(=O)[O-])c4ccc(S(=O)(=O)[O-])cc4C3(C)C)=C2Oc2ccc(S(=O)(=O)[O-])cc2)N(CCCCS(=O)(=O)[O-])c2ccc(S(=O)(=O)[O-])cc21.[Na+].[Na+].[Na+].[Na+] [IRDye™ 800CW acid] | – | does not produce significant fluorescence |
| SR144528 | > 700 | – |
